Assay: In vitro aerosolization performance of MDI formulations (Next Generation Impactor, HPLC)
Assay type: physicochemical
Settings: for FPFED (%) fine particle fraction of the emitted dose / Fine particle Dose (μg ± S.D.) / MMAD ± GSD / Emitted Dose (μg ± S.D.): NGI at 30 L.min^−1; for MMAD ± GSD: in µm (unit assumed); for Emitted Dose (μg ± S.D.): nominal dose salmeterol xinafoate 25 μg, fluticasone propionate 125 μg
Method: The nominal dose of salmeterol xinafoate was 25 μg and the nominal dose of fluticasone propionate was 125 μg.
A 100 mm×4.6 mm Ascentis Express […] column with a 2.7 μm particle size was used for the analysis.

[1] = combination MDI formulation in HFA-134a
[2] = combination MDI formulation in HFA-152a

CCC(=O)O[C@]1(C(=O)SCF)[C@H](C)C[C@H]2[C@@H]3C[C@H](F)C4=CC(=O)C=C[C@]4(C)[C@@]3(F)[C@@H](O)C[C@@]21C [Fluticasone Propionate, fluticasone propionate]
fine particle fractions of the emitted doses upon aerosolization, HFA-152a compared with HFA-134a (HFA-152a used as the propellant, versus HFA-134a (Tables 2 and 3)): significantly better
FPFED (%) fine particle fraction of the emitted dose [1]: 31.0%
Fine particle Dose (μg ± S.D.) [1]: 31.6 ± 3.3 µg
MMAD ± GSD [1]: 3.8 ± 2.5
Emitted Dose (μg ± S.D.) [1]: 101.7 ± 8.7 µg
FPFED (%) fine particle fraction of the emitted dose [2]: 40.0%
Fine particle Dose (μg ± S.D.) [2]: 43.5 ± 3.4 µg
MMAD ± GSD [2]: 2.9 ± 2.1
Emitted Dose (μg ± S.D.) [2]: 108.7 ± 1.1 µg
